From US20080125451A1, “VINORELBINE DERIVATIVES” (AMR TECHNOLOGY, INC., priority 2006, published 2008)

System: HeLa Cells
Assay: HeLa GI50 determination (SRB growth inhibition)
Assay type: cell-based
Conditions: 48 h; human cervical carcinoma cell line HeLa S-3; 2 days of treatment; sulforhodamine B staining
Description: A. HeLa GI50 Determinations
Growth inhibition (GI50) values were measured on the human cervical carcinoma cell line, HeLa S-3, which were selected for growth on plastic. The HeLa cell assay was based on the description of Skehan et al., J. Natl. Cancer Inst., 82:1107-12 (1990), which is hereby incorporated by reference in its entirety. HeLa cells were plated at 2×10^4 cells/well in 96 well plates. One day later, a control plate was fixed by the addition of TCA to 5%. After five rinses with tap water, the plate was air-dried and stored at 4° C. Test compounds were added to the remaining plates at 10-fold dilutions. Two days later, all plates were fixed as described above. Cells were then stained by the addition of 100 μL per well of 0.4% sulforhodamine B (SRB) in 1% acetic acid for 30 min at 4° C. Wells were then quickly rinsed 5× with 1% acetic acid and allowed to air dry. The SRB was then solubilized by the addition of 100 μL per well of unbuffered 10 mM Tris base. Dye was quantified by measuring absorbance at 490 nm on a Molecular Devices microplate reader. Growth inhibition was calculated according to the following equation: GI=100×(T−T0)/(C−T0), where the optical density (OD) of the test well after 2 days of treatment was T, the OD of the wells in the control plate on day 0 was T0 and C was the OD of untreated wells. […]

SMILES | GI50 [nM]
CCc1ccc2[nH]c3c(c2c1)CN1CC(C(C)(F)F)C[C@@H](C1)C[C@]3(C(=O)OC)c1cc2c(cc1OC)N(C)[C@H]1[C@@](O)(C(=O)OC)[C@H](OC(C)=O)[C@]3(CC)C=CCN4CC[C@]21[C@@H]43 (some centres unmarked) [Example 3, 11′-Ethylvinflunine] | 170
CC[C@]12C=CCN3CC[C@@]4(c5cc([C@@]6(C(=O)OC)C[C@H]7CC(C(C)(F)F)CN(Cc8c6[nH]c6ccc(SC)cc86)C7)c(OC)cc5N(C)[C@H]4[C@@](O)(C(=O)OC)[C@@H]1OC(C)=O)[C@@H]32 (some centres unmarked) [Example 12, 11′-(Methylsulfanyl)vinflunine] | 6.93
